Patent US20050215551A1, “1-[2H-1-benzopyran-2-one-8-yl]- piperazine derivatives for the treatment of movement disorders” (SOLVAY PHARMACEUTICALS B.V., priority 2004, published 2005)
Marks after values point to notes of the source that are not given here.

Columns and labels:
[1] = system: rats with unilateral 6-OHDA lesions; experiment: Turning experiments in animals with unilateral 6-hydroxydopamine lesions of the substantia nigra compacta; type: in vivo
Experimental: Male rats (Wistar, Harlan, Netherlands; 400-500 g at time of experiment) are housed in a temperature (20-21±2° C.) and humidity controlled environment and receive water ad libitum except during experimental sessions. Food is restricted to approximately 15 g per rat per day. A 12-hour light-dark cycle (lights on 07.00-19.00 hour) is used.
Unilateral 6-hydroxydopamine (6-OH DA) lesions of the substantia nigra zona compacta are performed using a stereotaxic procedure. One hour prior to surgery, desmethyl-imipramine (20 mg/kg, i.p.) is administered to protect noradrenergic neurons. Rats are anaesthetized with a 3% halothane+0.8 l/min N2O+0.8 l/min O2-gas mixture at 1013 mbar. During surgery the gas mixture is adjusted to 1.75-2% halothane, 0.6 l/min N2O and 0.6 l/min O2. The incisor bar of the stereotaxic instrument (Kopf, Calif., USA) iss set at −3.3 mm, a burr hole was drilled over the substantia nigra pars compacta and 3 μl of a 6-OHDA solution (3.33 mg/ml) is injected (flow rate=0.75 μl/min; the needle is left in place for 4 minutes prior to withdrawal). Coordinates for this procedure are: anterior posterior +3.2 mm from the interaural line; medial/lateral +1.8 mm from the midline and ventral −8.2 from the skull surface. Animals are allowed to recover for approximately 2 weeks prior to testing. Good turning rats are defined as those which elicited at least 20 contralateral turns following amphetamine (2.5 mg/kg sc) in the 5 min time epoch beginning 25 min after administration and a mean of at least 20 contralateral turns recorded over a 30 min period after administration of apomorphine (0.25 mg/kg s.c.). Regular testing with apomorphine (0.1 or 0.25 mg/kg s.c.) is carried out to ensure the reliability of the animals in this procedure.
Eight commercially available (TSE systems Bad Homburg, Germany) ‘rotameter’ units (transparent plastic bowls; 57×55×52 cm) are used for testing. The rats are harnessed and tethered to a rotation sensor interfaced to an IBM compatible personal computer (using the TSE Rotameter Software v. 1.11, TSE systems Bad Homburg, Germany) which registers clockwise or counterclockwise movement. An internal software rotation filter of 10 is used.
Following statistical randomization of the treatment groups rats are pretreated with compounds of the invention (0.1-3 mg/kg p.o.) or vehicle (2 ml/kg) and placed in the rotameters the contralateral rotational behaviour is then measured. In further studies the effects of L-DOPA (1-10 mg/kg p.o.) are assessed on contralateral rotations. The peripheral decarboxylase inhibitor benserazide (30 mg/kg i.p.) can be used. In combination studies a range of L-DOPA (1-10) doses and doses of compounds of the invention (0.1-3 mg/kg p.o.) can be combined.

Neurokinin-NK3 = Neurokinin-NK3 (Homo sapiens, UniProt P29371); experiment: Receptor binding Neurokinin-NK3; details: radioligand [3H]-SR 142801, read-out: Ki(nM) Compound 1
Chain of Neurokinin-NK3 (P29371 whole entry): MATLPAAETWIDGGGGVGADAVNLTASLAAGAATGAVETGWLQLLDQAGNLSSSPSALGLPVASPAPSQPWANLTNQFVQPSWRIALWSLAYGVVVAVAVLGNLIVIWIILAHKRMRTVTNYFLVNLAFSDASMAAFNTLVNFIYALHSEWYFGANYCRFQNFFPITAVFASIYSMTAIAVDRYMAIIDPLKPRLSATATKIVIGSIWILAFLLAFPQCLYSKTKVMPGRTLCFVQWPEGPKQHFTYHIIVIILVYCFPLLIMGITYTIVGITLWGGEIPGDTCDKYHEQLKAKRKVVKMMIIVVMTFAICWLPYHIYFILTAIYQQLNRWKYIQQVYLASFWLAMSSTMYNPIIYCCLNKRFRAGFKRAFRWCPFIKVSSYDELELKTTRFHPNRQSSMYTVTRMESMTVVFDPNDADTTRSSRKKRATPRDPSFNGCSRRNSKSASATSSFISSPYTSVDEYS
Experimental: (§1) Receptor binding data were obtained by CEREP (128, rue Danton, 92500 Rueil-Malmaison, France) or at Solvay Pharmaceuticals B.V., using well documented standard procedures. Affinity for 5-HT1A receptors for instance, was determined by testing the ability of the compounds of the invention to displace [^3H]-2-(di-n-propylamino)-8-hydroxytetralin ([^3H]-8-OH-DPAT) from its specific binding sites in rat frontal cortex homogenates. This test is based on the method described by Gozlan et al. (Nature, 305, (1983), pages 140-142).
(§2) The binding data collected in the table below were either obtained by CEREP (128, rue Danton, 92500 Rueil-Malmaison, France) or at Solvay Pharmaceuticals B.V., using well documented standard procedures.

Galanin-GAL2 = Galanin-GAL2 (Homo sapiens, UniProt O43603); experiment: Receptor binding Galanin-GAL2; details: radioligand [125I]-galanin, read-out: Ki(nM) Compound 1
Experimental: as §1, §2

Dopaminereuptake = Dopaminereuptake (Homo sapiens, UniProt Q01959); experiment: Binding Dopamine reuptake; details: radioligand [3H]-GBR 12935, read-out: Ki(nM) Compound 1
Chain of Dopaminereuptake (Q01959 whole entry): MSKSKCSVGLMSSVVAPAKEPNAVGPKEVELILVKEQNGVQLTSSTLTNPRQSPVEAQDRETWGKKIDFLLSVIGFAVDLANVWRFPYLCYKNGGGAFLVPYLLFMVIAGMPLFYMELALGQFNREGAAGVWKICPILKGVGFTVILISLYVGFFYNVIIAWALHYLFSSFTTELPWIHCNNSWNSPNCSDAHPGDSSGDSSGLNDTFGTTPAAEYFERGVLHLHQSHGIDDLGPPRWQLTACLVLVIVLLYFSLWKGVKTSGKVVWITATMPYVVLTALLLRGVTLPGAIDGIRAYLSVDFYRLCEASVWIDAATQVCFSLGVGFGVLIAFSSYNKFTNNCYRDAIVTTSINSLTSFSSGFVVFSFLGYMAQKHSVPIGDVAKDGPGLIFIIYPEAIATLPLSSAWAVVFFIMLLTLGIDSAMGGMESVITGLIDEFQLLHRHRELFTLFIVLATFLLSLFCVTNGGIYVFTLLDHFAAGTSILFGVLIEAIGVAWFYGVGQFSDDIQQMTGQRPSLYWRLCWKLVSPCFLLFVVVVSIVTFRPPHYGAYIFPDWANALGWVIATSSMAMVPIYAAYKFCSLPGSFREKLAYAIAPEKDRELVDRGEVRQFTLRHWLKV
Experimental: as §1, §2

cannabinoid-CB1 = cannabinoid-CB1 (Homo sapiens, UniProt P21554); experiment: Receptor binding cannabinoid-CB1; details: radioligand [3H]-WIN 55,212-2, read-out: Ki(nM) Compound 1
Chain of cannabinoid-CB1 (P21554 whole entry): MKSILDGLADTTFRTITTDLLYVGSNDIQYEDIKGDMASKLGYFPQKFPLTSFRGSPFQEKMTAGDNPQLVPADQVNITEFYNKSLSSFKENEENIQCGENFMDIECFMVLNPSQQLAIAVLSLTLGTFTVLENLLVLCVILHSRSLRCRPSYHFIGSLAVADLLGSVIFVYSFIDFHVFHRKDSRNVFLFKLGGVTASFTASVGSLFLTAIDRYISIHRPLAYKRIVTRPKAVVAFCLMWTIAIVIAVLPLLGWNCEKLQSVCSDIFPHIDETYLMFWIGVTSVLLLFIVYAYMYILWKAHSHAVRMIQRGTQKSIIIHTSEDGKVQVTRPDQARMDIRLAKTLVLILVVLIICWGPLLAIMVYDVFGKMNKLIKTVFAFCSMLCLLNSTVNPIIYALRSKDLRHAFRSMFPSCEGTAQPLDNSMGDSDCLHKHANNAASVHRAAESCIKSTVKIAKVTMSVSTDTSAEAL
Experimental: as §1, §2

Dopamine-D1 = Dopamine-D1 (Homo sapiens, UniProt P21728); experiment: Receptor binding Dopamine-D1; details: radioligand [3H]-SCH 23390, read-out: Ki(nM) Compound 1
Chain of Dopamine-D1 (P21728 whole entry): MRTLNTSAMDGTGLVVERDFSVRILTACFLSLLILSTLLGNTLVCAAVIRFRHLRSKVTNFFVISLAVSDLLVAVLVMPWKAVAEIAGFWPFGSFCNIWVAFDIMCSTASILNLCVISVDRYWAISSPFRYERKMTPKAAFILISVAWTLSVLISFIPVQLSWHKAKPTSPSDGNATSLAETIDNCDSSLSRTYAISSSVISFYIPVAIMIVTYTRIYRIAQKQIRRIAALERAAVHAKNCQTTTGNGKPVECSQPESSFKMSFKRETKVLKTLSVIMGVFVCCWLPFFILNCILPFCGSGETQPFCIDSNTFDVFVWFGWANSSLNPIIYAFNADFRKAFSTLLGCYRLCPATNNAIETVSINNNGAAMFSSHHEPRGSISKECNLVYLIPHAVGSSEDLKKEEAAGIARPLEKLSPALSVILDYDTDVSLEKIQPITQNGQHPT
Experimental: as §1, §2

angiotensin-AT1 = angiotensin-AT1 (Homo sapiens, UniProt P30556); experiment: Receptor binding angiotensin-AT1; details: radioligand [125I]-angiotensin II, read-out: Ki(nM) Compound 1
Chain of angiotensin-AT1 (P30556 whole entry): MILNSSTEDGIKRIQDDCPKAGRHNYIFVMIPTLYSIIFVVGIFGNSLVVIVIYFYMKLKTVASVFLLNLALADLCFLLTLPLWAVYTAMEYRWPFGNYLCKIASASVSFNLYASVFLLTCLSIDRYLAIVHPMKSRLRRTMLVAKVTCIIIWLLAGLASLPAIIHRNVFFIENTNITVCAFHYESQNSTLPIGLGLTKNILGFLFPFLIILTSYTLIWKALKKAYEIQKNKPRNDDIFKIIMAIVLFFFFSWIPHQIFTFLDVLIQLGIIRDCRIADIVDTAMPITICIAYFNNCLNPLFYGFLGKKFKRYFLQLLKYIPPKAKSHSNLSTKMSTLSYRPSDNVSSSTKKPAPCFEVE
Experimental: as §1, §2

Ca++-channel = Ca++-channel (Rattus norvegicus, UniProt Q02294); experiment: biochemical; type: binding
5-HT3 = 5-HT3 (Homo sapiens, UniProt P46098); experiment: Receptor binding 5-HT3; details: radioligand [3H]-BRL 43694, read-out: Ki(nM) Compound 1
Experimental: as §1, §2

Interleukine-6 = Interleukine-6 (Homo sapiens, UniProt P08887); experiment: Receptor binding Interleukine-6; details: radioligand [125I]-interleukine-6, read-out: Ki(nM) Compound 1
Chain of Interleukine-6 (P08887 20-468): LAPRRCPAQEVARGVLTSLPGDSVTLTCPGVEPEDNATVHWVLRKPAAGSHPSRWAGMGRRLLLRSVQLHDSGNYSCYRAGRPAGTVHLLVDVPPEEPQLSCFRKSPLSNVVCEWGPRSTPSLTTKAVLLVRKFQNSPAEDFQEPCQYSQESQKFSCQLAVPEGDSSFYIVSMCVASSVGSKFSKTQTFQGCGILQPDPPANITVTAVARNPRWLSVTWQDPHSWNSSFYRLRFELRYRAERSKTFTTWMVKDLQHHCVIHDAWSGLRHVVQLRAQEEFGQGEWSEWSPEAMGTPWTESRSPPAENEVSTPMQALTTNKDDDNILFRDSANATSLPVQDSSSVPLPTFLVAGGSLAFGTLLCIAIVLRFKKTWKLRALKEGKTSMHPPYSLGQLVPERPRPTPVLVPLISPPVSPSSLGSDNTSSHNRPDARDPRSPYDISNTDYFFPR
Experimental: as §1, §2

Muscarine-M4 = Muscarine-M4 (Homo sapiens, UniProt P08173); experiment: Receptor binding Muscarine-M4; details: radioligand [3H]-4-DAMP, read-out: Ki(nM) Compound 1
Chain of Muscarine-M4 (P08173 whole entry): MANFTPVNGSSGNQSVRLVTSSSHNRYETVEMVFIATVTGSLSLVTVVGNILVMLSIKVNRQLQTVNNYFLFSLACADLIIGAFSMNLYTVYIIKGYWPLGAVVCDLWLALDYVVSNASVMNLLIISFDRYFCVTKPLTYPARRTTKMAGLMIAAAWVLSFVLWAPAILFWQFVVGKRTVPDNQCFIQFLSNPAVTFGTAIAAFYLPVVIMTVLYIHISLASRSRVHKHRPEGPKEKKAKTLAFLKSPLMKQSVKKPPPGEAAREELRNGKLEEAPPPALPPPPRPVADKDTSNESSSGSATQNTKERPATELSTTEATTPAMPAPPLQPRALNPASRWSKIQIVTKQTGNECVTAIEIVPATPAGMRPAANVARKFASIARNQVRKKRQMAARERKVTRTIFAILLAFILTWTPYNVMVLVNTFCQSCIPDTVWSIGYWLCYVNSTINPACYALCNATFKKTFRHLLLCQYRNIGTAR
Experimental: as §1, §2

Neuropeptide Y1 = Neuropeptide Y1 (Homo sapiens, UniProt P25929); experiment: Receptor binding Neuropeptide Y1; details: radioligand [125I]-PYY, read-out: Ki(nM) Compound 1
Chain of Neuropeptide Y1 (P25929 whole entry): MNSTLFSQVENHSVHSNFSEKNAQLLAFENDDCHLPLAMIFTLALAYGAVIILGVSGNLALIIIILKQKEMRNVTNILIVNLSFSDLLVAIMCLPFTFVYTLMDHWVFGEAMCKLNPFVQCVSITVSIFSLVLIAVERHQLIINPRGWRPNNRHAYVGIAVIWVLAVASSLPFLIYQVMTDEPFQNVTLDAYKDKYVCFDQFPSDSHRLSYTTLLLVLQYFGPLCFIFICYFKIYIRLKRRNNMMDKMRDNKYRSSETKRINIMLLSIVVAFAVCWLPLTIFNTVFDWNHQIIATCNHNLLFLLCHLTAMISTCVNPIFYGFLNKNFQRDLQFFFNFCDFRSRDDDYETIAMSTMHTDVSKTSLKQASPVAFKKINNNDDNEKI
Experimental: as §1, §2

Muscarine-M5 = Muscarine-M5 (Homo sapiens, UniProt P08912); experiment: Receptor binding Muscarine-M5; details: radioligand [3H]-4-DAMP, read-out: Ki(nM) Compound 1
Chain of Muscarine-M5 (P08912 whole entry): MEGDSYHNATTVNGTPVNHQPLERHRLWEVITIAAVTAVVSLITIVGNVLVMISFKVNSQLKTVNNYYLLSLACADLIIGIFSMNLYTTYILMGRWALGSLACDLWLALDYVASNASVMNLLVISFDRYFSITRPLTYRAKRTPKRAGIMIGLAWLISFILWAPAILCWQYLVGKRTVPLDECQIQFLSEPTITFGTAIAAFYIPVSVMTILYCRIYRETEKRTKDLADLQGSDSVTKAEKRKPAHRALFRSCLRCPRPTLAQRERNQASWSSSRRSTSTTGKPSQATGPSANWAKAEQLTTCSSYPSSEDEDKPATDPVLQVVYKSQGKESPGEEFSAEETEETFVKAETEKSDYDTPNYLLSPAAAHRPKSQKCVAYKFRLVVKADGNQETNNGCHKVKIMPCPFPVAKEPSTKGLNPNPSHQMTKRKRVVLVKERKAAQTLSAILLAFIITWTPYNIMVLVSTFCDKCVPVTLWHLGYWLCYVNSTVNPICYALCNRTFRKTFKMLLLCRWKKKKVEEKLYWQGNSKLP
Experimental: as §1, §2

β2-adrenergic = β2-adrenergic (Homo sapiens, UniProt P07550); experiment: Receptor binding β2-adrenergic; details: radioligand [3H]-CGP 12177, read-out: Ki(nM) Compound 1
Experimental: as §1, §2

Muscarine-M3 = Muscarine-M3 (Homo sapiens, UniProt P20309); experiment: Receptor binding Muscarine-M3; details: radioligand [3H]-4-DAMP, read-out: Ki(nM) Compound 1
Chain of Muscarine-M3 (P20309 whole entry): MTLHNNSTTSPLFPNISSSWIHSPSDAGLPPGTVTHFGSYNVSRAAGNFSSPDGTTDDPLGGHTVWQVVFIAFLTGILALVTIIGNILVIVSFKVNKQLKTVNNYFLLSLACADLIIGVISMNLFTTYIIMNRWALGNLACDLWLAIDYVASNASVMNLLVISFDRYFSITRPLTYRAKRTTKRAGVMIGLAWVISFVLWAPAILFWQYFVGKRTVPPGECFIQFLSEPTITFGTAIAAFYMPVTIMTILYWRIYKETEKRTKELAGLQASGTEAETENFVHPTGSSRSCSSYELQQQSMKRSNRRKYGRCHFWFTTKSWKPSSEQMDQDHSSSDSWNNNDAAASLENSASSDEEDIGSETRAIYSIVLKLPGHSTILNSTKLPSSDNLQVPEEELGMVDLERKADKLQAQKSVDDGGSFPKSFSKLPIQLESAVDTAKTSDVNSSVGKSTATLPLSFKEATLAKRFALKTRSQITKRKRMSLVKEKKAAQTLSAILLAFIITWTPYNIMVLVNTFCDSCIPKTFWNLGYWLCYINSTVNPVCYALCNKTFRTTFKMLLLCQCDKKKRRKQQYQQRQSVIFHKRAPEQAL
Experimental: as §1, §2

Histamine-H2 = Histamine-H2 (Homo sapiens, UniProt P25021); experiment: Receptor binding Histamine-H2; details: radioligand [125I]-APT, read-out: Ki(nM) Compound 1
Experimental: as §1, §2

GABAB = GABAB (Rattus norvegicus, UniProt Q9Z0U4); experiment: Receptor binding GABAB; details: read-out: Ki(nM) Compound 1
Experimental: as §1, §2

Which results are given for `Nc1cc2cccc(N3CCNCC3)c2oc1=O` [Compound 1, 3-amino-8-(1-piperazinyl)-2H-1-benzopyran-2-one]?
Mean number of turns (rotations contralateral to the direction of a 6-OHDA lesion) ([1]; 0.3 mg/kg p.o.): 20.925; Mean number of turns (rotations contralateral to the direction of a 6-OHDA lesion) ([1]; 0.5 mg/kg p.o.): 22.988; Mean number of turns (rotations contralateral to the direction of a 6-OHDA lesion) ([1]; 0.75 mg/kg p.o.): 106.35*; Mean number of turns (rotations contralateral to the direction of a 6-OHDA lesion) ([1]; 1.0 mg/kg p.o.): 77.1*; minimal effective dose, contralateral rotation ([1]; p.o.): 0.75 mg/kg; Ki (Neurokinin-NK3): > 1000 nM; Ki (Galanin-GAL2): > 1000 nM; Ki (Dopaminereuptake): > 1000 nM; Ki (cannabinoid-CB1): > 10000 nM; Ki (Dopamine-D1): > 1000 nM; Ki (angiotensin-AT1): > 1000 nM; Ki (Ca++-channel): > 1000 nM; Ki (5-HT3): 250 nM; Ki (Interleukine-6): > 10000 nM; Ki (Muscarine-M4): > 1000 nM; Ki (Neuropeptide Y1): > 1000 nM; Ki (Muscarine-M5): > 1000 nM; Ki (β2-adrenergic): 40 nM; Ki (Muscarine-M3): > 1000 nM; Ki (Histamine-H2): > 1000 nM; Ki (GABAB): > 1000 nM
